Experimental findings from US12263171B2, “7-, 8-, and 10-substituted amino triazolo quinazoline derivatives as adenosine receptor antagonists, pharmaceutical compositions and their use” (Merck Sharp & Dohme LLC, priority 2018, dated 2025) are described below.

In experiment [1] the target is T1, human A2a adenosine receptor (Homo sapiens (Human), UniProt P29274). The experiment in a line: A2A antagonism in cAMP cell-based assay (LANCE cAMP, HEK293 cells, 300 nM adenosine). Particulars: values marked *: cAMP cell-based assay. Here is the method: Measurement of A2A and A2B Antagonism in cAMP Cell-Based Assay
T1 sequence (P29274 whole entry): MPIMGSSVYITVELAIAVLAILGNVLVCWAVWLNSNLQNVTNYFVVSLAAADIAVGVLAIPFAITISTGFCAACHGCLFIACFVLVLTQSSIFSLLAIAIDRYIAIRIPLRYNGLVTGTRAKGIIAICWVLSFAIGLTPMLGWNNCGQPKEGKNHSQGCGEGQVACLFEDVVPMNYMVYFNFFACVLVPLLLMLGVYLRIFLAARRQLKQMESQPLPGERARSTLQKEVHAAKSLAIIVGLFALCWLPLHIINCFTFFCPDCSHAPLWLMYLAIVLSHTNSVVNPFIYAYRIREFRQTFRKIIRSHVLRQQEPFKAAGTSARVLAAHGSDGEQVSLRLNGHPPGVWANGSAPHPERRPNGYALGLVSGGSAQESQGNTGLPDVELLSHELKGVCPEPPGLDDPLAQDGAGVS
All subsequent liquid additions were performed using a multichannel pipettor. […] After this time 5 μL of either 300 nM or 600 nM adenosine (Sigma Cat. No. A9251) for A2A and A2B respectively was added and incubated for 30 minutes at 37° C. and 5% CO2 in a humidified environment. At this time detection mix was prepared by combining the LANCE Eu-W8044 labeled streptavidin and. Biotin-cAMP in detection buffer according to the manufacturers protocol. […] Curve fitting of the percent effect data versus the log of compound concentration used a 4-parameter concentration response curve fitting algorithm to calculate IC50 values.
(In general: In TR-FRET formats the signal depends on donor and acceptor labels being close together.)

Experiment [2] addresses T2, human A2b adenosine receptor (Homo sapiens (Human), UniProt P29275). The experiment is described as follows: A2B antagonism in cAMP cell-based assay (LANCE cAMP, HEK293 cells, 600 nM adenosine). The following applies: for IC50: values marked *: cAMP cell-based assay.
In experiment [3] the target is T2, human A2b adenosine receptor. The experiment in a line: A2b radioligand filtration binding assay (tritiated proprietary A2b antagonist, HEK293 membranes). Particulars: @ 10000 nM, unstarred. In a few lines: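 Displacement of a tritiated proprietary A2b antagonist from membranes of HEK293 cells recombinantly expressing human A2b receptor, measured by filtration and scintillation counting. Percent effect was normalized to total and non-specific binding and fitted with a 4-parameter logistic to give IC50.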

For experiment [4], the target named is T1, human A2a adenosine receptor. The experiment in a line: A2a receptor affinity radioligand binding assay ([3H] SCH58261, membranes from HEK293 or CHO cells). The following applies: unstarred values: radioligand binding. The gist of the method:
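Displacement of tritiated SCH58261 (working dilution 4 nM) from recombinant human A2a receptor membranes (HEK293 or CHO), 60 min at room temperature in Tris pH 7.4/MgCl2 buffer after 15–30 min compound preincubation. Scintillation counting after filtration; normalized percent effect fitted 4-parameter logistic for IC50.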

Each structure is given as a SMILES string.

T2 sequence (P29275 whole entry): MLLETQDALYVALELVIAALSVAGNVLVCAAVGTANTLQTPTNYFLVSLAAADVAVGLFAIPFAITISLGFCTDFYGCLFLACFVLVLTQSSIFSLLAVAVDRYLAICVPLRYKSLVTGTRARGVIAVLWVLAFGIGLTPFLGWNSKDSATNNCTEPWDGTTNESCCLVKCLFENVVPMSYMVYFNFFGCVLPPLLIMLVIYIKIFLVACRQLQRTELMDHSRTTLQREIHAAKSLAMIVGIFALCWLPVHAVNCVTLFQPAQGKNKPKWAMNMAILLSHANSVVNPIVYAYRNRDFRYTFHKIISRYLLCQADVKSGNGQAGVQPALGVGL

For the compound `COc1cccc2c1nc(N)n1nc(C3CCC(C)N(c4cnn(C(C)(C)CO)c4)C3)nc21` (single isomer, unassigned) [Example 146C], the IC50 in experiment [1] is 101 nM; in experiment [2], 2200 nM.
The matching figures for `COc1ccc2c(c1)nc(N)n1nc([C@@H]3C[C@@H](C(F)(F)F)CN(c4cnn(CC(C)(C)O)c4)C3)nc21` (single isomer, unassigned) [Example 218B, 1-(4-((3R,5R or 3S,5S)-3-(5-amino-8-methoxy-[1,2,4]triazolo[1,5-c]quinazolin-2-yl)-5-(trifluoromethyl)piperidin-1-yl)-1H-pyrazol-1-yl)-2-methylpropan-2-ol]: 635 nM and greater than 10000 nM.
Take `COc1cccc2c1nc(N)n1nc([C@@H]3CCCN(c4cc(C(F)(F)F)ccn4)C3)nc21` [Example 116, (R)-7-melhoxy-2-(1-(4-(trifluoromethyl)pyridin-2-yl)piperidin-3-yl)-[1,2,4]triazolo[1,5-c]quinazolin-5-amine]: in experiment [3], the “A2B binding % inh. @ 10000 nM” value is 18% inh. @ 10000 nM. Half-maximal inhibition in experiment [1] (IC50) was put at 40.5 nM.
Turning to `COc1cccc2c1nc(N)n1nc([C@@H]3CCCN(c4ccc(C(F)(F)F)cn4)C3)nc21` [Example 118, (R)-7-methoxy-2-(1-(5-(trifluoromethyl)pyridin-2-yl)piperidin-3-yl)-[1,2,4]triazolo[1,5-c]quinazolin-5-amine], the IC50 in experiment [1] came out at 10.6 nM; in experiment [2] it was 105 nM.
Turning to `COc1cccc2c1nc(N)n1nc([C@H]3CC[C@@H](C)N(c4cn(CC(C)(C)O)nc4C)C3)nc21` [Example 145D, 1-(4-((2R,5S)-5-(5-amino-7-methoxy-[1,2,4]triazolo[1,5-c]quinazolin-2-yl)-2-methylpiperidin-1-yl)-3-methyl-1H-pyrazol-1-yl)-2-methylpropan-2-ol], the results for the IC50 in experiment [1] and in experiment [2] were 30.3 nM and 461 nM, respectively.
The matching figures for `COc1ccc2c(c1)nc(N)n1nc([C@H]3C[C@@H](C)CN(c4cn([C@H](C)[C@@H](C)O)nc4C)C3)nc21` [Example 219C, (2R,3R)-3-(4-((3S,5R)-3-(5-amino-8-methoxy-[1,2,4]triazolo[1,5-c]quinazolin-2-yl)-5-methylpiperidin-1-yl)-3-methyl-1H-pyrazol-1-yl)butan-2-ol]: 38.6 nM and 5650 nM.
The compound `COc1ccc2c(c1)nc(N)n1nc([C@@H]3C[C@H](C)CN(c4cn([C@@H](C)[C@H](C)O)nc4C)C3)nc21` [Example 219D, (2S,3S)-3-(4-((3R,5S)-3-(5-amino-8-methoxy-[1,2,4]triazolo[1,5-c]quinazolin-2-yl)-5-methylpiperidin-1-yl)-3-methyl-1H-pyrazol-1-yl)butan-2-ol] gave an IC50 in experiment [1] of 44.3 nM. Besides, the “*A2B cAMP % inh. @ 10000 nM” value in experiment [2] (@ 10000 nM, marked *) is given as 33% inh. @ 10000 nM*.
As to `COc1ccc2c(c1)nc(N)n1nc([C@@H]3CCCN(c4cnn([C@H](C)[C@@H](C)O)c4)C3)nc21` [Example 220B, (2R,3R)-3-(4-((R)-3-(5-amino-8-methoxy-[1,2,4]triazolo[1,5-c]quinazolin-2-yl)piperidin-1-yl)-1H-pyrazol-1-yl)butan-2-ol], the IC50 in experiment [4] was determined as 1.39 nM; in experiment [2], 52.8 nM.
Take `COc1ccc2c(c1)nc(N)n1nc([C@@H]3CCCN(c4cnn([C@@H](C)[C@@H](C)O)c4)C3)nc21` [Example 221A, (2R,3S)-3-(4-((R)-3-(5-amino-8-methoxy-[1,2,4]triazolo[1,5-c]quinazolin-2-yl)piperidin-1-yl)-1H-pyrazol-1-yl)butan-2-ol]: the IC50 was found to be 1.92 nM in experiment [4] and 61 nM in experiment [2].
Taken in the same sequence, the figures for `COc1ccc2c(c1)nc(N)n1nc([C@@H]3CCCN(c4cnn([C@H](C)[C@H](C)O)c4)C3)nc21` [Example 221B, (2S,3R)-3-(4-((R)-3-(5-amino-8-methoxy-[1,2,4]triazolo[1,5-c]quinazolin-2-yl)piperidin-1-yl)-1H-pyrazol-1-yl)butan-2-ol] were 1.5 nM and 86 nM.
For the compound `COc1ccc2c(c1)nc(N)n1nc([C@H]3C[C@H](C)CN(c4cnn(C(C)(C)CO)c4)C3)nc21` [Example 222B, 2-(4-((3S,5S)-3-(5-amino-8-methoxy-[1,2,4]triazolo[1,5-c]quinazolin-2-yl)-5-methylpiperidin-1-yl)-1H-pyrazol-1-yl)-2-methylpropan-1-ol], the half-inhibitory concentration (IC50) turned out to be 63.8 nM in experiment [1] and 1720 nM in experiment [2].
Turning to `COc1ccc2c(c1)nc(N)n1nc([C@H]3C[C@@H](C)CN(c4cnn(C(C)(C)CO)c4)C3)nc21` [Example 222C, 2-(4-((3S,5R)-3-(5-amino-8-methoxy-[1,2,4]triazolo[1,5-c]quinazolin-2-yl)-5-methylpiperidin-1-yl)-1H-pyrazol-1-yl)-2-methylpropan-1-ol], the IC50 was determined as 0.4 nM in experiment [4] and 13.5 nM in experiment [2].
Turning to `COc1ccc2c(c1)nc(N)n1nc([C@@H]3C[C@@H](C)CN(c4cnn(C(C)(C)CO)c4)C3)nc21` [Example 222D, 2-(4-((3R,5R)-3-(5-amino-8-methoxy-[1,2,4]triazolo[1,5-c]quinazolin-2-yl)-5-methylpiperidin-1-yl)-1H-pyrazol-1-yl)-2-methylpropan-1-ol], the IC50 amounted to 33.3 nM in experiment [1] and 655 nM in experiment [2].
Regarding `COc1cc(F)c2c(c1)nc(N)n1nc([C@@H]3CC[C@H](C)N(c4cnn(CC(C)(C)O)c4)C3)nc21` [Example 223, 1-(4-((2S,5R)-5-(5-amino-10-fluoro-8-methoxy-[1,2,4]triazolo[1,5-c]quinazolin-2-yl)-2-methylpiperidin-1-yl)-1H-pyrazol-1-yl)-2-methylpropan-2-ol], the IC50 in experiment [4] was 1 nM; in experiment [2], 20.9 nM.
The matching figures for `COc1ccc(F)c2c1nc(N)n1nc([C@@H]3CC[C@H](C)N(c4cnn(CC(C)(C)O)c4)C3)nc21` [Example 224, 1-(4-((2S,5R)-5-(5-amino-10-fluoro-7-methoxy-[1,2,4]triazolo[1,5-c]quinazolin-2-yl)-2-methylpiperidin-1-yl)-1H-pyrazol-1-yl)-2-methylpropan-2-ol]: 0.3 nM and 9.6 nM.
Taken in the same sequence, the figures for `COc1ccc2c(c1)nc(N)n1nc([C@@H]3CCCN(c4cnn(C(C)(C)[C@H](C)O)c4)C3)nc21` [Example 225A] were 1.2 nM and 32.2 nM.
Taken in the same sequence, the figures for `COc1ccc2c(c1)nc(N)n1nc([C@@H]3CCCN(c4cnn(C(C)(C)[C@@H](C)O)c4)C3)nc21` [Example 225B] were 3.2 nM and 78.4 nM.

One may read the IC50 as the midpoint of a concentration-inhibition curve. Lower therefore signals greater potency in that assay.
